From patent US11891401B2, “Solid forms of N-(4-fluoro-3-(6-(3-methylpyridin-2-yl)-[1,2,4]triazolo[1,5-a]pyrimidin-2-yl)phenyl)-2,4-dimethyloxazole-5-carboxamide” (NOVARTIS AG, priority 2018, dated 2024)
Values after ≈ are worked out from the molar mass of the structure shown. Blank lines part the entries; values can stand above or below the compound they belong to.

Assays:
Format in all cases: physicochemical
[1] = Solubility in various media at 25° C. after 24 hours equilibration (UPLC); conditions: for final pH of the sample (in parentheses): after 24 hours equilibration
[2] = Solid-state chemical stability: degradation products by UPLC/HPLC after stress storage; conditions: for DP % (Degradation Product), Bulk (UPLC): Solid state; for DP % (Degradation Product), Amber vial (HPLC) / DP % (Degradation Product), Clear vial (HPLC): Xenon light (approx. 1200 kLuxh)
Description: (§1) Compound I, Compound I fumaric acid co-crystals and amorphous Compound I fumaric acid samples (10 mg) were placed in an open vial at 50° C./75% RH and 80° C./75% RH chamber for one week. A same amount of sample was placed in a closed vial at 50° C. and 80° C. chamber for 1 week. The samples were exposed to 100 k Lux light for 12 h at 25° C. Solids were examined by XRPD for physical stability determination and by UPLC for chemical stability determination. The color of the samples was evaluated by visual observation. Table 5 compares the stability of Compound I and its various solid forms.

[3] = Solid-state physical stability: form change by XRPD after stress storage; conditions: Solid state
Description: as §1

[4] = Dynamic Vapor Sorption (DVS) moisture absorption / hygroscopicity; conditions: for solid form after DVS: after DVS testing; for moisture absorption by DVS: at 90% RH, 25° C.; for hygroscopicity: by DVS
[5] = Crystal form after grinding, compression and wet granulation; conditions: compression and wet granulation (water and ethanol)
[6] = 0.01N HCl pH 2.0, 25° C., 24 hours equilibration
[7] = 0.1N HCl pH 1.0, 25° C., 24 hours equilibration
[8] = FaSSIF pH 6.5, 25° C., 24 hours equilibration
[9] = FeSSIF pH 5.8, 25° C., 24 hours equilibration
[10] = SGF pH 2.0, 25° C., 24 hours equilibration
[11] = acetate buffer pH 4.7, 25° C., 24 hours equilibration
[12] = borate buffer pH 10.0, 25° C., 24 hours equilibration
[13] = phosphate buffer pH 6.8, 25° C., 24 hours equilibration
[14] = water, 25° C., 24 hours equilibration
[15] = 1 week 80° C., closed container
[16] = 1 week 50° C., closed container
[17] = listed as Compound I fumaric acid co-crystals (2:1)

solubility [1, 6]: 9 µg/mL (≈ 20.3 µM) | final pH of the sample (in parentheses) ([1]; 0.01N HCl pH 2.0): (2.0) | solubility [1, 7]: 180 µg/mL (≈ 406 µM) | final pH of the sample (in parentheses) ([1]; 0.1N HCl pH 1.0): (1.1) | solubility [1, 8]: 3 µg/mL (≈ 6.77 µM) | final pH of the sample (in parentheses) ([1]; FaSSIF pH 6.5): (6.1) | solubility [1, 9]: 13 µg/mL (≈ 29.3 µM) | final pH of the sample (in parentheses) ([1]; FeSSIF pH 5.8): (5.7) | solubility [1, 10]: 25 µg/mL (≈ 56.4 µM) | final pH of the sample (in parentheses) ([1]; SGF pH 2.0): (2.2) | solubility [1, 11]: <0.1 µg/mL | final pH of the sample (in parentheses) ([1]; acetate buffer pH 4.7): (4.7) | solubility [1, 12]: <0.1 µg/mL | final pH of the sample (in parentheses) ([1]; borate buffer pH 10.0): (9,7) | solubility [1, 13]: <0.1 µg/mL | final pH of the sample (in parentheses) ([1]; phosphate buffer pH 6.8): (6.7) | solubility [1, 14]: <0.1 µg/mL | final pH of the sample (in parentheses) ([1]; water): (3.2) | DP % (Degradation Product), Bulk (UPLC) [2, 15]: 1.7% | DP % (Degradation Product), Bulk (UPLC) ([2]; 1 week 80° C./75% r.h.): 1.6% | DP % (Degradation Product), Amber vial (HPLC) [2]: 1.5% | DP % (Degradation Product), Clear vial (HPLC) [2]: 10.6% | Bulk (XRPD) [3, 15]: no change
SMILES: Cc1nc(C)c(C(=O)Nc2ccc(F)c(-c3nc4ncc(-c5ncccc5C)cn4n3)c2)o1 [Amorphous Compound I Fumaric Acid (2:1), N-(4-fluoro-3-(6-(3-methylpyridin-2-yl)-[1,2,4]triazolo[1,5-a]pyrimidin-2-yl)phenyl)-2,4-dimethyloxazole-5-carboxamide]

solid form after DVS [4, 17]: remains the same form | moisture absorption by DVS [4]: 0.12% | moisture absorption by DVS [4, 17]: 0.12% | hygroscopicity [4]: non-hygroscopic | hygroscopicity [4, 17]: non-hygroscopic | solubility [1, 6]: 5 µg/mL | final pH of the sample (in parentheses) ([1]; 0.01N HCl pH 2.0): (1.9) | solubility [1, 7]: 160 µg/mL | final pH of the sample (in parentheses) ([1]; 0.1N HCl pH 1.0): (0.8) | final pH of the sample (in parentheses) ([1]; FaSSIF pH 6.5): (5.9) | solubility compared to the solubility of the free form ([1]; FeSSIF): significantly better | final pH of the sample (in parentheses) ([1]; FeSSIF pH 5.8): (5.5) | solubility [1, 10]: 30 µg/mL | final pH of the sample (in parentheses) ([1]; SGF pH 2.0): (1.9) | final pH of the sample (in parentheses) ([1]; acetate buffer pH 4.7): (4.5) | final pH of the sample (in parentheses) ([1]; borate buffer pH 10.0): (9.6) | final pH of the sample (in parentheses) ([1]; phosphate buffer pH 6.8): (6.6) | solubility at 24 h ([1]; thermodynamic from solid, FeSSIF pH 5.8, 25° C., 24 hours equilibration): 17 µg/mL | final pH of the sample (in parentheses) ([1]; water): (3.1) | DP % (Degradation Product), Bulk (UPLC) [2, 16]: 1.2% | DP % (Degradation Product), Bulk (UPLC) ([2]; 1 week 50° C./75% r.h.): 1.2% | DP % (Degradation Product), Bulk (UPLC) [2, 15]: 1.2% | DP % (Degradation Product), Bulk (UPLC) ([2]; 1 week 80° C./75% r.h.): 1.2% | DP % (Degradation Product), Amber vial (HPLC) [2]: 1.2% | DP % (Degradation Product), Clear vial (HPLC) [2]: 1.2% | Bulk (XRPD) [3, 16]: no change | Bulk (XRPD) ([3]; 1 week 50° C./75% r.h.): no change | Bulk (XRPD) [3, 15]: no change
SMILES: Cc1nc(C)c(C(=O)Nc2ccc(F)c(-c3nc4ncc(-c5ncccc5C)cn4n3)c2)o1 [Compound I Fumaric Acid Co-crystal (2:1), N-(4-fluoro-3-(6-(3-methylpyridin-2-yl)-[1,2,4]triazolo[1,5-a]pyrimidin-2-yl)phenyl)-2,4-dimethyloxazole-5-carboxamide]

Second part, the compound before the results:

SMILES: Cc1nc(C)c(C(=O)Nc2ccc(F)c(-c3nc4ncc(-c5ncccc5C)cn4n3)c2)o1 [Form B, N-(4-fluoro-3-(6-(3-methylpyridin-2-yl)-[1,2,4]triazolo[1,5-a]pyrimidin-2-yl)phenyl)-2,4-dimethyloxazole-5-carboxamide]
solid form after DVS [4]: remains the same form | moisture absorption by DVS [4]: 0.3% | hygroscopicity [4]: non-hygroscopic | crystal form after grinding, compression and wet granulation [5]: did not alter the crystal form | solubility [1, 6]: 21 µg/mL (≈ 47.4 µM) | final pH of the sample (in parentheses) ([1]; 0.01N HCl pH 2.0): (2.1) | solubility [1, 7]: 170 µg/mL (≈ 383 µM) | final pH of the sample (in parentheses) ([1]; 0.1N HCl pH 1.0): (1.0) | solubility [1, 8]: 7 µg/mL (≈ 15.8 µM) | final pH of the sample (in parentheses) ([1]; FaSSIF pH 6.5): (5.7) | solubility [1, 9]: 16 µg/mL (≈ 36.1 µM) | final pH of the sample (in parentheses) ([1]; FeSSIF pH 5.8): (5.6) | solubility [1, 10]: 63 µg/mL (≈ 142 µM) | final pH of the sample (in parentheses) ([1]; SGF pH 2.0): (1.9) | solubility [1, 11]: 2 µg/mL (≈ 4.51 µM) | final pH of the sample (in parentheses) ([1]; acetate buffer pH 4.7): (4.6) | stability and solubility (24 h) in aqueous media ([1]; aqueous media, 24 h, versus free form hydrate): comparable to the free form hydrate | solubility compared to the solubility of the free form ([1]; biological fluids SGF, FaSSIF and FeSSIF): significantly better | solubility [1, 12]: 2 µg/mL (≈ 4.51 µM) | final pH of the sample (in parentheses) ([1]; borate buffer pH 10.0): (8.1) | solubility [1, 13]: 2 µg/mL (≈ 4.51 µM) | final pH of the sample (in parentheses) ([1]; phosphate buffer pH 6.8): (6.5) | solubility [1, 14]: 4 µg/mL (≈ 9.02 µM) | final pH of the sample (in parentheses) ([1]; water): (2.9) | DP % (Degradation Product), Bulk (UPLC) [2, 16]: 1.8% | DP % (Degradation Product), Bulk (UPLC) ([2]; 1 week 50° C./75% r.h.): 1.7% | DP % (Degradation Product), Bulk (UPLC) [2, 15]: 1.7% | DP % (Degradation Product), Bulk (UPLC) ([2]; 1 week 80° C./75% r.h.): 1.7% | DP % (Degradation Product), Amber vial (HPLC) [2]: 1.7% | DP % (Degradation Product), Clear vial (HPLC) [2]: 1.6% | Bulk (XRPD) [3, 16]: no change | Bulk (XRPD) ([3]; 1 week 50° C./75% r.h.): no change | Bulk (XRPD) [3, 15]: no change

SMILES: Cc1nc(C)c(C(=O)Nc2ccc(F)c(-c3nc4ncc(-c5ncccc5C)cn4n3)c2)o1 [Form C, N-(4-fluoro-3-(6-(3-methylpyridin-2-yl)-[1,2,4]triazolo[1,5-a]pyrimidin-2-yl)phenyl)-2,4-dimethyloxazole-5-carboxamide]
moisture absorption by DVS [4]: approximately 0.6% | hygroscopicity [4]: slightly hygroscopic | solubility [1, 7]: 240 µg/mL (≈ 541 µM) | final pH of the sample (in parentheses) ([1]; 0.1N HCl pH 1.0): (1.1) | final pH of the sample (in parentheses) ([1]; FaSSIF pH 6.5): (5.5) | final pH of the sample (in parentheses) ([1]; FeSSIF pH 5.8): (5.5) | solubility [1, 10]: 46 µg/mL (≈ 104 µM) | final pH of the sample (in parentheses) ([1]; SGF pH 2.0): (2.0) | final pH of the sample (in parentheses) ([1]; acetate buffer pH 4.7): (4.4) | final pH of the sample (in parentheses) ([1]; phosphate buffer pH 6.8): (6.4) | final pH of the sample (in parentheses) ([1]; water): (2.9) | DP % (Degradation Product), Bulk (UPLC) [2, 16]: 1.8% | DP % (Degradation Product), Bulk (UPLC) ([2]; 1 week 50° C./75% r.h.): 1.7% | DP % (Degradation Product), Bulk (UPLC) [2, 15]: 1.8% | DP % (Degradation Product), Bulk (UPLC) ([2]; 1 week 80° C./75% r.h.): 1.8% | DP % (Degradation Product), Amber vial (HPLC) [2]: 1.8% | DP % (Degradation Product), Clear vial (HPLC) [2]: 1.8% | Bulk (XRPD) [3, 16]: no change | Bulk (XRPD) ([3]; 1 week 50° C./75% r.h.): no change | Bulk (XRPD) [3, 15]: no change

SMILES: Cc1nc(C)c(C(=O)Nc2ccc(F)c(-c3nc4ncc(-c5ncccc5C)cn4n3)c2)o1 [Amorphous Compound I Fumaric Acid (1:1), N-(4-fluoro-3-(6-(3-methylpyridin-2-yl)-[1,2,4]triazolo[1,5-a]pyrimidin-2-yl)phenyl)-2,4-dimethyloxazole-5-carboxamide]
solubility [1, 6]: 36 µg/mL (≈ 81.2 µM) | final pH of the sample (in parentheses) ([1]; 0.01N HCl pH 2.0): (2.1) | solubility [1, 7]: 350 µg/mL (≈ 789 µM) | final pH of the sample (in parentheses) ([1]; 0.1N HCl pH 1.0): (1.1) | solubility [1, 8]: 7 µg/mL (≈ 15.8 µM) | final pH of the sample (in parentheses) ([1]; FaSSIF pH 6.5): (5.8) | solubility [1, 9]: 18 µg/mL (≈ 40.6 µM) | final pH of the sample (in parentheses) ([1]; FeSSIF pH 5.8): (5.6) | solubility [1, 10]: 55 µg/mL (≈ 124 µM) | final pH of the sample (in parentheses) ([1]; SGF pH 2.0): (2.2) | solubility [1, 11]: <0.1 µg/mL | final pH of the sample (in parentheses) ([1]; acetate buffer pH 4.7): (4.6) | solubility [1, 12]: <0.1 µg/mL | final pH of the sample (in parentheses) ([1]; borate buffer pH 10.0): (9.6) | solubility [1, 13]: <0.1 µg/mL | final pH of the sample (in parentheses) ([1]; phosphate buffer pH 6.8): (6.6) | solubility [1, 14]: 0.2 µg/mL (≈ 0.451 µM) | final pH of the sample (in parentheses) ([1]; water): (3.0) | DP % (Degradation Product), Bulk (UPLC) [2, 15]: 2.6% | DP % (Degradation Product), Bulk (UPLC) ([2]; 1 week 80° C./75% r.h.): 2.7% | DP % (Degradation Product), Amber vial (HPLC) [2]: 2.8% | DP % (Degradation Product), Clear vial (HPLC) [2]: 4.5% | Bulk (XRPD) [3, 15]: no change
